In patent publication US4206116A, “Novel penicillins” (Bristol-Myers Company, priority 1978, dated 1980):
≈ marks a conversion by molar mass, not a printed value. Where “and” joins values, the source holds several entries; their conditions need not be identical. Equal values may be shown once. Read-outs that look alike come from different tables or passages of the source.

Columns and labels:
[1] = Blood Level (im, 20mg/kg); assay type: in vivo; settings: for half-life / Cmax: blood; for Cmax: read-out: Blood Level peak conc.
[2] = system: gram-negative bacteria; test: In vitro gram-negative activity of the isomers (summary of MIC); assay type: cell-based; settings: in words
Experimental: (§1) Minimum inhibitory concentrations (MIC) of BB-P 652, BB-P 660 and BB-P 661 were determined by serial two-fold agar dilution method using Steer's apparatus on Mueller-Hinton agar plates against S. aureus (6 strains), cephalothinsensitive gram-negative (Gn-I, 13 strains), cephalothinresistant gram-negative (Gn-II, 6 strains) and Ps. aeruginosa (64 strains). The results are shown in Tables 1 and 2 along with piperacillin and carbenicillin.

[3] = system: S. aureus Smith; test: PD50 (mice, im); assay type: in vivo; settings: Staphylococcus aureus
[4] = system: E. coli Juhl; test: PD50 (mice, im); assay type: in vivo; settings: Escherichia coli
[5] = system: Pseudomonas; test: Antipseudomonal activity of HPLC fractions; assay type: cell-based; settings: fractions of preparative HPLC of crude BB-P661
Description: The result is shown below:

[6] = system: K. pneumoniae A9977; test: MIC, serial two-fold agar dilution, Mueller-Hinton agar; assay type: cell-based; settings: Klebsiella pneumoniae
Experimental: as §1

[7] = system: S. aureus Smith; test: as above; assay type: cell-based; settings: Staphylococcus aureus
Experimental: as §1

[8] = system: P. aeruginosa A9843; test: as above; assay type: cell-based; settings: Pseudomonas aeruginosa
Experimental: as §1

[9] = system: E. cloacae A9656; test: as above; assay type: cell-based; settings: Enterobacter cloacae
Experimental: as §1

[10] = system: S. aureus BX-1633; test: as above; assay type: cell-based; settings: Staphylococcus aureus, BX1633
Experimental: as §1

[11] = system: P. mirabilis A9900; test: as above; assay type: cell-based; settings: Proteus mirabilis
Experimental: as §1

[12] = system: P. vulgaris A9539; test: as above; assay type: cell-based; settings: Proteus vulgaris
Experimental: as §1

[13] = system: E. coli Juhl; test: as above; assay type: cell-based; settings: Escherichia coli
Experimental: as §1

[14] = system: P. aeruginosa A15150; test: as above; assay type: cell-based; settings: Pseudomonas aeruginosa
Experimental: as §1

[15] = system: Ps. aerug. A9843; test: PD50 (mice, im); assay type: in vivo; settings: for ED50: Mus musculus
[16] = system: gram-positive bacteria; test: In vitro activity against gram-positive bacteria (summary of MIC); assay type: cell-based; settings: in words
Experimental: as §1

[17] = system: P. aeruginosa; test: MIC, serial two-fold agar dilution, Mueller-Hinton agar (third P. aeruginosa line, strain not given); assay type: cell-based; settings: Pseudomonas aeruginosa
Experimental: as §1

[18] = system: Gram-negative (Gn-II), cephalothin-resistant, 6 strains; test: Mean % relative activity to carbenicillin from geometric mean MIC; assay type: cell-based; settings: for Mean % relative activity (carbenicillin = 100%): Gram-negative (Gn-II), 6 strains, from geometric mean of MIC
Experimental: as §1

[19] = system: Ps. aeruginosa (64 strains); test: as above; assay type: cell-based; settings: for Mean % relative activity (carbenicillin = 100%): Ps. aeruginosa, 64 strains, from geometric mean of MIC
Experimental: as §1

[20] = system: S. aureus (6 strains); test: as above; assay type: cell-based; settings: from geometric mean of MIC
Experimental: as §1

[21] = system: Gram-negative (Gn-I), cephalothin-sensitive, 13 strains; test: as above; assay type: cell-based; settings: for Mean % relative activity (carbenicillin = 100%): Gram-negative (Gn-I), 13 strains, from geometric mean of MIC
Experimental: as §1

[22] = P. aeruginosa A9843, agar dilution, Mueller-Hinton agar, read-out: MIC
[23] = E. coli Juhl, agar dilution, Mueller-Hinton agar, read-out: MIC

Compound	half-life ([1]; im, 20 mg/kg) [min]	Cmax ([1]; im, 20 mg/kg, im) [ng/mL]	ED50 [3] [mg/kg]	ED50 [4] [mg/kg]	MIC [6] [µg/mL]	MIC [7] [µg/mL]	MIC [8, 22] [µg/mL]	MIC [9] [µg/mL]	MIC [10] [µg/mL]	MIC [11] [µg/mL]	MIC [12] [µg/mL]	MIC [13, 23] [µg/mL]	MIC [14] [µg/mL]	ED50 [15] [mg/kg]	activity against gram-positive bacteria, compared with each other [16]	MIC [17] [µg/mL]	Mean % relative activity (carbenicillin = 100%) [18] [%]	Mean % relative activity (carbenicillin = 100%) [19] [%]	Mean % relative activity (carbenicillin = 100%) [20] [%]	Mean % relative activity (carbenicillin = 100%) [21] [%]	further results
CCN1CCN(C(=O)N[C@@H](C(=O)N[C@@H]2C(=O)N3[C@@H]2SC(C)(C)[C@@H]3C(=O)O)c2ccc(O)c(O)c2)C(=O)C1=O [BB-P 661, Sodium 6-[D-α-(4-ethyl-2,3-dioxo-1-piperazinocarboxamido)-α-(3,4-dihydroxyphenyl)acetamido]penicillinate]	28	4000	6.25	1.8	0.025	6.3	0.8	1.6	12.5	0.4	0.4	0.4	12.5	25	almost as active as each other	0.8	178	418	22	3030	gram-negative activity, compared among the three isomers [2]: the most active of the three isomers; antipseudomonal activity [5]: exhibited antipseudomonal activity; potency against gram-positive bacteria, compared with piperacillin [16]: less potent than piperacillin; activity compared with piperacillin against cephalothin-resistant strains ([18]; in words): slightly less active; activity compared with piperacillin against Pseudomonas ([19]; in words): slightly less active; times more active than piperacillin against cephalothin-sensitive gram-negative organisms ([21]; versus piperacillin): about 8 times
CCN1CCN(C(=O)N[C@@H](C(=O)N[C@@H]2C(=O)N3[C@@H]2SC(C)(C)[C@@H]3C(=O)O)c2ccccc2)C(=O)C1=O [piperacillin, reference compound]	29	4900	0.8	3.3	0.8 (≈ 1.55 µM)	0.8 (≈ 1.55 µM)	6.3 (≈ 12.2 µM)	1.6 (≈ 3.09 µM)	3.1 (≈ 5.99 µM)	0.8 (≈ 1.55 µM)	0.4 (≈ 0.773 µM)		3.1 (≈ 5.99 µM)	45		25 (≈ 48.3 µM)	224	637	56	360	half-life ([1]; sc, 20 mg/kg, route: sc (footnote 2)): 44 min; Blood Level peak conc. ([1]; im, listed as B-P 606, 20 mg/kg): 6200 ng/mL and 9000 ng/mL; Blood Level half life ([1]; route: sc (footnote 2), listed as B-P 606, 20 mg/kg): 30 min; MIC [13]: 1.6 µg/mL (≈ 3.09 µM); PD50 ([15]; listed as B-P 606): 35 mg/kg and 25 mg/kg and 40 mg/kg
CC1(C)S[C@@H]2[C@H](NC(=O)C(C(=O)O)c3ccccc3)C(=O)N2[C@H]1C(=O)O (some centres unmarked) [carbenicillin, reference compound]					1.6 (≈ 4.23 µM)	0.2 (≈ 0.529 µM)	100 (≈ 264 µM)	1.6 (≈ 4.23 µM)	3.1 (≈ 8.19 µM)	0.8 (≈ 2.11 µM)	1.6 (≈ 4.23 µM)	3.1 (≈ 8.19 µM)	25 (≈ 66.1 µM)			> 100					
CCN1CCN(C(=O)NC(C(=O)N[C@@H]2C(=O)N3[C@@H]2SC(C)(C)[C@@H]3C(=O)O)c2ccc(O)c(O)c2)C(=O)C1=O (mixture of isomers) [BB-P 652, Sodium 6-[DL-α-(4-ethyl-2,3-dioxo-1-piperazinocarboxamido)-α-3,4-dihydroxyphenylacetamido]penicillanate]	32	8300	4.5	1.8	0.05	6.3		1.6	12.5	0.8	0.8	0.8	50	30	almost as active as each other	6.3	112	271	25	1780	Blood Level half life ([1]; im, 20 mg/kg): 39 min; Blood Level peak conc. ([1]; im, 20 mg/kg): 4500 ng/mL; MIC ([8]; A9843): 3.1 µg/mL; potency against gram-positive bacteria, compared with piperacillin [16]: less potent than piperacillin
CCN1CCN(C(=O)N[C@H](C(=O)N[C@@H]2C(=O)N3[C@@H]2SC(C)(C)[C@@H]3C(=O)O)c2ccc(O)c(O)c2)C(=O)C1=O [BB-P 660, Sodium 6-[L-α-(4-ethyl-2,3-dioxo-1-piperazinocarboxamido)-α-3,4-dihydroxyphenylacetamido]penicillanate]	39	4000	7.3	7.2	0.8	6.3	> 100	12.5	12.5	12.5	> 100	6.3	> 100	> 100	almost as active as each other	> 100	6	26	22	200	gram-negative activity, compared among the three isomers [2]: considerably decreased activity; potency against gram-positive bacteria, compared with piperacillin [16]: less potent than piperacillin
